Test results from paper PMC10892093 (Pharmaceutics, 2024).
Where two headings read alike, the source gives them in different places.

Legend:
[1] = test system: human kidney microsomes (HKM); experiment: Inhibition of R- and S-oxazepam glucuronidation in human kidney microsomes
Method: (§1) A Waters Corp BEH C18 Acquity UPLC column (1.7 µM, 2.1 × 100 mm) was used at a constant temperature of 40 °C for chromatographic separation. An elution gradient was used for 6.5 min with mobile phases A (5 mM ammonium formate) and B (100% methanol) under the following conditions: 90% A for 0.5 min, followed by a linear gradient for 3 min to 60% A, 1 min at 5% A, and re-equilibration for 1 min at 90% A.
(§2) The reaction was initiated by the addition of 4 mM UDPGA as the cofactor and incubated for 2 h at 37 °C. The reaction was terminated by adding 30 µL of an ice-cold stop solution (acetonitrile/methanol; 1:1). The reaction mixtures were centrifuged at 17,000× g for 30 min at 4 °C, and the supernatant was transferred to UPLC sample glass vial for analysis using UPLC–MS/MS (described above). […] As a positive control for inhibition assays, ketoconazole (10 μM and 100 µM) was used as a potential inhibitor of the UGTs 1A9, 2B7, and 2B15. Reactions containing only the cannabinoid vehicle (3% methanol) and without any inhibitor (cannabinoids) were used as a baseline reaction for 100% enzyme activity, while a reaction without UDPGA was used as a negative control. All experiments were performed in three independent experiments.
(§3) Determination of IC50 and Ki Values. […] The nonspecific binding constants (fu,inc) for cannabinoids in HEK293 microsomes, HLM, and HKM were previously determined and used to calculate the inhibition by unbound (‘free’) cannabinoid in each reaction. A nonlinear regression analysis and the following equation were used to calculate the IC50 values:(1) y = Bottom +Top − Bottom / 1 + 10^x − LogIC50A where ‘Bottom’ is the maximum observed inhibition (lowest percent activity) and ‘Top’ is the minimum observed inhibition (highest percent activity) for a given cannabinoid.

UGT1A9 = target: T1, UGT1A9 (Homo sapiens, UniProt O60656); experiment: Inhibition of R-oxazepam glucuronidation in rUGT1A9 microsomes (UGT-overexpressing HEK293); type: biochemical; conditions: for IC50: rUGT1A9
T1 construct: expressed in transfected cells; microsomal fraction
T1 sequence (O60656 26-530): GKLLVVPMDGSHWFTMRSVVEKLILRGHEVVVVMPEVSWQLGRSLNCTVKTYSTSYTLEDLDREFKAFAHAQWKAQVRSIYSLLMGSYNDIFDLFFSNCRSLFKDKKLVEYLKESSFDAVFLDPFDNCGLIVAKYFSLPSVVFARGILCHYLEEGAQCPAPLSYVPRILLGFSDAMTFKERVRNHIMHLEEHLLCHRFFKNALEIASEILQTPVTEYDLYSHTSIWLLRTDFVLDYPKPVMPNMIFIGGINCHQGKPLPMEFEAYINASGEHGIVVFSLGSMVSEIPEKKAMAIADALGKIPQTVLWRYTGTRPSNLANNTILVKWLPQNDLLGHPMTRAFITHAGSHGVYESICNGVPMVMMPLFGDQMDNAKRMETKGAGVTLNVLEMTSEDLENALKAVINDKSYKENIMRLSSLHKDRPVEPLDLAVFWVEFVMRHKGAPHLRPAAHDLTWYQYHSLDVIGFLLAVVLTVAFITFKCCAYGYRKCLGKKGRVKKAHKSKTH
Method: Human embryonic kidney cells (HEK293) stably overexpressing the single UGTs 1A9, 2B7, and 2B15 have been previously established and described. Cells were grown in DMEM supplemented with 350 μg/mL of geneticin and 10% FBS and harvested in PBS. Microsomal fractions of UGT-overexpressing cell lines were prepared by differential centrifugation using previously described protocols. Briefly, cell homogenates were prepared by resuspending pelleted cells in PBS, followed by five rounds of freeze–thaw cycles prior to homogenization. Recombinant microsomes (rUGTs) were prepared by centrifuging the cell homogenate at a low speed (9000× g for 30 min) followed by ultracentrifugation (34,000× g for 60 min), with the total protein subsequently determined using a BCA assay. Recombinant microsomes (UGT1A9 and 2B7) and homogenates (UGT2B15) were used for inhibition studies.
as §1, §2, §3

[2] = test system: UGTs (S-oxazepam glucuronidation in HKM); experiment: Inhibition of R- and S-oxazepam glucuronidation in human kidney microsomes; conditions: human, human kidney microsomes
Method: as §1, §2, §3

[3] = test system: UGTs (R-oxazepam glucuronidation in HKM); experiment: as above; conditions: human, human kidney microsomes
Method: as §1, §2, §3

[4] = cited from earlier work
[5] = test system: UGTs (S-oxazepam glucuronidation in HLM); experiment: Inhibition of R- and S-oxazepam glucuronidation in human liver microsomes; conditions: human, human liver microsomes
Method: as §1, §2, §3
(§4) The inhibition constant (Ki) was generated from the in vitro IC50 values assuming competitive inhibition (based on the Cheng–Prusoff equation; [49]). Considering that there have been no reports of the irreversible inhibition (e.g., mechanism-based inhibition) of UGTs, competitive inhibition was assumed as the worst-case scenario (highest inhibition) among all feasible types of reversible inhibitions. The substrate concentration used in the incubations was below the reported Km; therefore, the Ki values were predicted using Equation (2):(2) Ki=IC50/S/Km+1 where Km is Michaelis–Menten constant for the substrate, S is the substrate concentration, and IC50 is half-maximal inhibitory concentration.

[6] = test system: UGTs (R-oxazepam glucuronidation in HLM); experiment: as above; conditions: human, human liver microsomes
Method: as §1, §2, §3, §4

[7] = read-out: IC50, R-Oxazepam Glucuronide
[8] = read-out: IC50, S-Oxazepam Glucuronide
[9] = read-out: IC50,u, S-Oxazepam Glucuronide, IC50 corrected with fu,inc
[10] = IC50 corrected with fu,inc, read-out: IC50,u, R-Oxazepam Glucuronide
[11] = rUGT1A9 microsomes, 100 µM cannabinoid, vs control without cannabinoid
[12] = pH 7.4, IC50, S-Oxazepam Glucuronide
[13] = pH 7.4, IC50,u, S-Oxazepam Glucuronide, IC50 corrected with fu,inc
[14] = pH 7.4, IC50, R-Oxazepam Glucuronide
[15] = pH 7.4, IC50,u, R-Oxazepam Glucuronide, IC50 corrected with fu,inc

Compound	IC50 [1, 7] [µM]	IC50 [1, 8] [µM]	IC50 ([1]; read-out: IC50,u, R-Oxazepam Glucuronide, IC50 corrected with fu,inc) [µM]	IC50 [1, 9] [µM]	IC50 (UGT1A9; [10]) [µM]	IC50 (UGT1A9; [7]) [µM]	Inhibition of R-oxazepam glucuronide formation (UGT1A9; [11]) [%]	IC50 at 2 h [2, 12] [µM]	IC50 at 2 h [2, 13] [µM]	IC50 at 2 h [3, 14] [µM]	IC50 at 2 h [3, 15] [µM]	Increase in N-desmethylclobazam concentration ([4]; coadministration of clobazam, stiripentol, and CBD 750 mg twice daily) [fold]	Increase in the level of 1-hydroxymidazolam ([4]; oral CBD 750 mg twice daily with midazolam) [%]	inhibition at 2 h, 10 µM (UGT1A9; human, pH 7.4, rUGT1A9 microsomes, 10 µM cannabinoid, vs control without cannabinoid, read-out: Inhibition of R-oxazepam glucuronide formation) [%]	inhibition at 2 h, 100 µM (UGT1A9; human, pH 7.4, rUGT1A9 microsomes, 100 µM cannabinoid, vs control without cannabinoid, read-out: Inhibition of R-oxazepam glucuronide formation) [%]	IC50 at 2 h [5, 12] [µM]	IC50 at 2 h [5, 13] [µM]	IC50 at 2 h [6, 14] [µM]	IC50 at 2 h [6, 15] [µM]
11-hydroxy-Δ^9-tetrahydrocannabinol [11-OH-THC]	18 ± 4.3	19 ± 2	1.7 ± 0.4	1.8 ± 0.19	1 ± 0.6	13 ± 7.7	87	–	–	–	–	–	–	–	–	–	–	–	–
C=C(C)[C@@H]1CCC(C)=C[C@H]1c1c(O)cc(CCCCC)cc1O [CBD, cannabidiol]	–	–	–	–	0.053 ± 0.011	1.4 ± 0.29	–	16 ± 7.7	0.98 ± 0.48	5.9 ± 1	0.36 ± 0.062	3.4	12	98	99	87 ± 46	4.5 ± 2.4	16 ± 7.7	0.84 ± 0.39
CCCCCc1cc(O)c2c(c1)OC(C)(C)[C@@H]1CCC(C)=C[C@@H]21 [THC, Δ^9-tetrahydrocannabinol]	94 ± 26	> 100	–	> 4.8	0.5 ± 0.31	–	83	–	–	–	–	–	–	–	–	–	–	–	–
